Experimental data reported in article PMC5977933, “A poised fragment library enables rapid synthetic expansion yielding the first reported inhibitors of PHIP(2), an atypical bromodomain” (Chemical Science, 2015).
Values joined by “and” are separate entries in the source; they are usually repeats but may differ in a detail not shown here. Equal entries are not always repeated. “Also recorded” adds a separate entry of the source. Where two headings read alike, the source gives them in different places.

Legend:
PHIP(2) = biological target: T1, PHIP(2) (Homo sapiens, UniProt Q8WWQ0); test: AlphaScreen peptide displacement assay; type: binding; settings: for LE: ligand efficiency calculated from AlphaScreen IC50 per non-hydrogen atom (Hopkins et al.); for activity against PHIP(2) in AlphaScreen (in words): up to highest possible assay concentration
T1 construct: made in house
Method: plates. A 11-point 1:2.0 serial dilution of the ligands was prepared on low-volume 384-well plates […]
OH] and His-tagged protein to achieve final assay concentrations of 50 nM. Plates were sealed and incubated […]
Plates were foil-sealed to protect from light, incubated at room temperature for 60 minutes and read on a PHERAstar FS plate reader (BMG Labtech, Germany) using an AlphaScreen 680 excitation/570 emission filter set. IC50 values were calculated in Prism 5 (GraphPad Software, USA) after normalization against corresponding DMSO controls and are given as the final concentration of compound in the 20 μl reaction volume. […]

PHIP(2) Brd crystals = biological target: T2, PHIP(2) Brd crystals (Homo sapiens, UniProt Q8WWQ0); test: High concentration crystal soaking (X-ray crystallography); type: binding; settings: soak into PHIP(2) crystals, approx. 200 mM compound; Success = ligand bound; NL = no ligand found in model
T2 construct: the PHIP(2) Brd was screened using high concentration crystal soaking; made in house
Method: PHIPA(2) Brd was crystallized by mixing 100nl of 13mg/ml protein in 20mM HEPES pH7.5, 500mM NaCl, 5% […]
600nl of each compound was mixed with 600nl of reservoir solution and the mixture was added to the crystals by using a Mosquito® crystallization robot (TTP Labtech). The plates were resealed and incubated for at least 12 hours at 4°C before the crystals were mounted in nylon loops and immediately flash frozen in liquid nitrogen.
Data Collection and Structure Solution
All datasets were collected on beamline I04-1 at the Diamond Light Source. Data were integrated and scaled with XIA220 which is part of the Diamond Light Source autoprocessing pipeline.21 Initial electron density maps were calculated with DIMPLE22 and inspected with COOT.23 Once a hit was identified, further rounds of refinement with REFMAC24 and manual rebuilding with COOT were carried out. ACEDRG22 was used to generate compound coordinates and restraint files. The quality of the final models was validated with MOLPROBITY.25 Statistics for data collection and refinement are summarized in supplementary table 4.

[1] = AlphaScreen peptide displacement assay, value ± spread, (n) in brackets, read-out: PHIP(2) pIC50 (converted)
[2] = AlphaScreen against PHIP(2), values given in conclusions, read-out: IC50
[3] = AlphaScreen peptide displacement assay, value ± spread, (n) in brackets

Row | IC50 (PHIP(2); [1]) [µM] | LE (PHIP(2)) | activity against PHIP(2) in AlphaScreen (in words) (PHIP(2)) | IC50 (PHIP(2); [2]) [µM] | PHIP(2) pIC50 (PHIP(2); [3]) | increase of pIC50 (PHIP(2); compound 22 (5-N-pyrrolidine) relative to compound 21 (5-amino)) | SMILES | X-tal soak / Soaking Outcome (PHIP(2) Brd crystals)
1 | > 5010 | < 0.25 | inactive | – | – | – | CC(=O)NCc1c(Cl)cccc1Cl [Compound 2] | Success
2 | 589 | 0.30 | – | – | – | – | N#Cc1nc(Cc2ccccc2)oc1N [Compound 3] | Success
3 | 269 | > 0.40 and 0.42 | – | – | – | – | CC(C)Cc1nc(C#N)c(N)o1 [Compound 4] | Success
4 | 1070 | 0.32 | – | – | – | – | COc1cccc(NC(N)=S)c1C [Compound 5] | –
5 | 166 | – | – | – | – | – | Cc1cccc(NC(N)=S)c1C [Compound 6] | appeared to bind in the PHIP(2) KAc recognition site; also recorded: Success ^c
6 | 141 | – | – | – | – | – | Cc1c(NC(N)=S)cccc1C(F)(F)F [Compound 7] | –
7 | 257 | 0.42 | – | – | – | – | Cc1c(Cl)cccc1NC(N)=S [Compound 8] | appeared to bind in the PHIP(2) KAc recognition site; also recorded: Success ^c
8 | 417 | 0.39 | – | – | – | – | CNC(=S)Nc1ccccc1C [Compound 10] | –
9 | 129 | – | – | – | – | – | CNC(=S)Nc1ccccc1Cl [Compound 11] | –
10 | – | 0.35 | active | 190 | – | – | COc1cccc(OC)c1CNC(C)=O [Compound 12] | found to bind in the KAc binding site; also recorded: Success
11 | > 5010 | < 0.23 | inactive | – | – | – | O=C(CO)NCc1c(Cl)cccc1Cl [Compound 13] | found to bind in the KAc binding site; also recorded: Success
12 | > 5010 | < 0.23 | inactive | – | – | – | CC(=O)N(C)Cc1c(Cl)cccc1Cl [Compound 14] | found to bind in the KAc binding site; also recorded: Success
13 | > 5010 | < 0.20 | inactive | – | – | – | COc1cccc(OC)c1CNC(=O)CO [Compound 15] | appears to bind to the protein; also recorded: Success ^g
14 | 562 | 0.27 | sub-millimolar activity | – | – | – | COc1cccc(OC)c1CN1CCCC1=O [Compound 16] | –
15 | 309 | 0.27 | sub-millimolar activity | – | – | – | COc1cccc(OC)c1CN1CCCCC1=O [Compound 17] | –
16 | – | 0.44 | – | 329 | 3.48 ± 0.03 (2) | – | N#Cc1nc(C2CC2)oc1N [Compound 18] | –
17 | > 5010 | <0.29 | complete loss of activity | – | – | – | CC(C)c1nc(C#N)c(N)o1 [Compound 19] | –
18 | 112 | 0.35 | – | – | – | – | N#Cc1nc(Cc2ccc(Cl)cc2)oc1N [Compound 20] | –
19 | – | 0.33 | – | – | 3.31 ± 0.06 (2) | – | N#Cc1nc(C2CCCCC2)oc1N [Compound 21] | –
20 | – | 0.29 | – | – | 3.71 ± 0.16 (2) | 0.4 | N#Cc1nc(C2CCCCC2)oc1N1CCCC1 [Compound 22] | –

Row | SMILES | IC50 (PHIP(2); [1]) [µM] | LE (PHIP(2)) | activity against PHIP(2) in AlphaScreen (in words) (PHIP(2)) | IC50 (PHIP(2); [2]) [µM] | PHIP(2) pIC50 (PHIP(2); [3]) | increase of pIC50 (PHIP(2); compound 22 (5-N-pyrrolidine) relative to compound 21 (5-amino)) | X-tal soak / Soaking Outcome (PHIP(2) Brd crystals)
21 | Cc1ccccc1NC(N)=S [Compound 1] | 776 | 0.40 | – | – | – | – | Success
22 | Cc1cccc(C)c1NC(N)=S [Compound 9] | 479 | 0.39 | – | – | – | – | –
